{
  "source": "paper PMC11286589",
  "about": "“Population pharmacokinetics and exposure–response analyses of SAF-189s in Chinese patients with ALK+/ROS1+ non-small cell lung cancer” (Frontiers in Pharmacology, 2024)",
  "assay": "Population pharmacokinetic (PopPK) model of SAF-189s plasma concentrations (NONMEM)",
  "format": "in vivo, human",
  "method": "The population PK analysis included data from one phase I study of SAF-189s conducted with healthy subjects (study STL31147; n = 24) and one phase I/II study conducted with Chinese patients having ALK+/ROS1+ advanced NSCLC (study SAF001; n = 299). STL31147 was a single-center, randomized, open-label, two-period (fed and fasting), and two-sequence crossover study on healthy Chinese adults. The volunteers received SAF-189s at a dose of 160 mg orally once in each period, with a washout period of 14 days. Blood samples (3 mL) were collected after each SAF-189s administration at 0 (predose), 1, 2, 3, 4, 6, 8, 10, 12, 24, 48, 72, 120, and 168 h post dosing. SAF001 was a multicenter, open-label, and single-arm phase I/II study to evaluate the safety, tolerability, pharmacokinetics, and antitumor activity of SAF-189s in patients with advanced ALK+ NSCLC (phase I) and ALK+/ROS1+ NSCLC (phase II). In the dose escalation portion, the study treatment included a single-agent 3-day PK run-in period and a continuous treatment period. The dosing regimens were 20, 40, 80, 120, 160, and 210 mg QD for 21 days in 21-day cycles during the continuous treatment period. In phase II, the patients received 80, 120, 160, and 210 mg of SAF-189s (phase IIa) or 160 mg (phase IIb) QD over 21-day cycles.\nAll studies were conducted in accordance with the Good Clinical Practice guidelines and Declaration of Helsinki. The protocols were approved by the independent ethics committee of each investigation site, and all subjects provided informed consent. The tumor responses were assessed by the IRC based on the Response Evaluation Criteria in Solid Tumors (RECIST) 1.1 conditions. The exposure–efficacy analyses of SAF-189s were conducted based on data from patients in the SAF001 study to explore the relationships between systemic exposure and efficacy endpoints, including the ORR, PFS, and duration of response (DOR). The exposure–safety analyses of SAF-189s were conducted based on data from patients in the SAF001 study to explore the relationships between the systemic exposure and safety endpoints, including the adverse events (AEs) of interest. In these studies, the SAF-189s plasma concentrations were analyzed using validated liquid chromatography tandem mass spectrometry within the assay range of 0.5–150 ng mL^–1.\nDataset preparation and exploratory graphical analyses were performed using R (version 4.2.0) and SAS® (version 9.4, Institute Inc., Cary, NC, United States). The PK data of SAF-189s were pooled and analyzed using a non-linear mixed-effects model. The PopPK analysis was conducted using NONMEM® software (version 7.3, ICON, Hanover, MD, United States) with first-order conditional estimations with interactions (FOCE-I). Following graphical exploratory analysis, one- and two-compartment models were evaluated; several absorption models were then tested, including first-order, zero-order, sequential zero- and first-order, and parallel first-order models with and without a lag absorption time; based on the characteristics of the elimination phase of the concentration–time profiles of SAF-189s, the linear, non-linear, and time-dependent elimination models ([Lau et al., 2019]; [Kratochwil et al., 2021]) were investigated. Interindividual variance (IIV) was then described as a log-normal distribution, and the covariance between the IIV parameters was assessed. Residual variability was assessed by comparing the proportional, additive, and combined error models. Owing to the low proportion (<1%) of post-administration samples with concentrations below the quantification limit (BQL) of the assay, the BQL data were excluded from the PopPK model development. Model selection was based on the objective function value (OFV), goodness-of-fit (GOF) plot, and robustness of parameter estimates. The ETA shrinkage was also taken into consideration when evaluating the models.\nThe covariates were prespecified based on their physiological and clinical relevance. […]",
  "key": {"[1]": {"conditions": "5th percentile age (25 years) vs median age (53 years)"}, "[2]": {"conditions": "95th percentile age (71 years) vs median age (53 years)"}, "[3]": {"conditions": "ALKPOT 2 or 3 or 4 vs reference 1"}, "[4]": {"conditions": "ALKPOT 6 (healthy) vs reference 1"}, "[5]": {"conditions": "age 25 year vs reference 53 year, Figure 4"}, "[6]": {"conditions": "age 71 year vs reference 53 year, Figure 4"}},
  "note": "Where “and” joins values, the source holds several entries; their conditions need not be identical. Equal entries are not always repeated.",
  "data": [
    {"compound": "Cc1cc(Nc2ncc(Cl)c(Nc3ccccc3S(=O)(=O)C(C)C)n2)c2c(c1C1CCN(C)CC1)C[C@@H](C)O2", "note": "[SAF-189s]", "values": [
      {"measurement": "AUCss geometric mean", "setting": "160 mg QD dose", "result": "2,374 ng∙h mL^–1"},
      {"measurement": "AUC decrease", "setting": "[1]", "result": 21, "unit": "%"},
      {"measurement": "CL/F increase", "setting": "[1]", "result": 27, "unit": "%"},
      {"measurement": "AUC increase", "setting": "[2]", "result": 10, "unit": "%"},
      {"measurement": "CL/F decrease", "setting": "[2]", "result": 8.8, "unit": "%"},
      {"measurement": "AUCss(ug*h/L) Ratio", "setting": "[3]", "result": 1.18},
      {"measurement": "V/F(L) Ratio", "setting": "[3]", "result": 0.734},
      {"measurement": "AUCss(ug*h/L) Ratio", "setting": "ALKPOT 5 (ROS1) vs reference 1", "result": 1.06},
      {"measurement": "V/F(L) Ratio", "setting": "ALKPOT 5 (ROS1) vs reference 1", "result": 0.917},
      {"measurement": "AUCss(ug*h/L) Ratio", "setting": "[4]", "result": 0.979},
      {"measurement": "V/F(L) Ratio", "setting": "[4]", "result": 0.784},
      {"measurement": "AUCss higher", "setting": "ALKPOT = 2, 3, 4 compared to ALKPOT = 1", "result": 18, "unit": "%"},
      {"measurement": "V/F reduction", "setting": "ALKPOT = 2, 3, 4 relative to ALKPOT = 1", "result": 26.6, "unit": "%"},
      {"measurement": "AUCss higher", "setting": "ALKPOT = 5 compared to ALKPOT = 1", "result": 6, "unit": "%"},
      {"measurement": "V/F reduction", "setting": "ALKPOT = 5 relative to ALKPOT = 1", "result": 8.3, "unit": "%"},
      {"measurement": "V/F reduction", "setting": "ALKPOT = 6 (healthy subjects) relative to ALKPOT = 1", "result": 21.6, "unit": "%"},
      {"measurement": "AUCss lower", "setting": "ALKPOT = 6 compared to ALKPOT = 1", "result": 2.1, "unit": "%"},
      {"measurement": "effect of prior anticancer therapy on AUCss", "setting": "ALKPOT covariate", "result": "less than 20%"},
      {"measurement": "half-life", "setting": "after the first dose, typical subjects (median age 53 years, ALK+ without previous ALK inhibitor treatment)", "result": 34.6, "unit": "h"},
      {"measurement": "AUCss(ug*h/L) Ratio", "setting": "[5]", "result": 0.79},
      {"measurement": "CL/F(L/h) Ratio", "setting": "[5]", "result": 1.27},
      {"measurement": "AUCss(ug*h/L) Ratio", "setting": "[6]", "result": 1.1},
      {"measurement": "CL/F(L/h) Ratio", "setting": "[6]", "result": 0.912},
      {"measurement": "AUCss median value", "setting": "exposure–safety analysis, all patients", "result": "2,233 ng∙h mL^–1"},
      {"measurement": "ALAG1 (tlag) typical value", "setting": "final PopPK model estimate", "result": "0.483 (±0.0306) h and 0.483 h"},
      {"measurement": "CL1/F typical value", "setting": "final PopPK model estimate", "result": "64 (±1.51) L h^–1 and 64 L h^–1"},
      {"measurement": "CL2/F typical value", "setting": "final PopPK model estimate", "result": "40.3 (±6.89) L h^–1 and 40.3 L h^–1"},
      {"measurement": "KA typical value", "setting": "final PopPK model estimate", "result": "0.501 (±0.0444) h^−1"},
      {"measurement": "V/F typical value", "setting": "final PopPK model estimate", "result": "5,210(±339) L and 5,210 L"},
      {"measurement": "KA typical value", "setting": "final PopPK model estimate, Table 2", "result": 0.501, "unit": "L h^–1"},
      {"measurement": "Interindividual variability ω^2 ALAG1", "setting": "final model estimate", "result": 0.12},
      {"measurement": "Interindividual variability ω^2 CL", "setting": "final model estimate", "result": 0.138},
      {"measurement": "Interindividual variability ω^2 KA", "setting": "final model estimate", "result": 0.279},
      {"measurement": "Interindividual variability ω^2 V", "setting": "final model estimate", "result": 0.125},
      {"measurement": "ALKPOT = 6 on V/F", "setting": "healthy subjects, final model estimate", "result": 0.784},
      {"measurement": "ALAG1 bootstrap estimate", "setting": "non-parametric bootstrap", "result": 0.491, "unit": "h"},
      {"measurement": "ALKPOT = 2,3,4 on V/F bootstrap estimate", "setting": "non-parametric bootstrap", "result": 0.724},
      {"measurement": "ALKPOT = 5 on V/F bootstrap estimate", "setting": "non-parametric bootstrap", "result": 0.905},
      {"measurement": "ALKPOT = 6 on V/F bootstrap estimate", "setting": "non-parametric bootstrap", "result": 0.782},
      {"measurement": "CL1/F bootstrap estimate", "setting": "non-parametric bootstrap", "result": 64, "unit": "L h^–1"},
      {"measurement": "CL2/F bootstrap estimate", "setting": "non-parametric bootstrap", "result": 40.5, "unit": "L h^–1"},
      {"measurement": "Interindividual variability ω^2 ALAG1 bootstrap estimate", "setting": "non-parametric bootstrap", "result": 0.106},
      {"measurement": "Interindividual variability ω^2 CL bootstrap estimate", "setting": "non-parametric bootstrap", "result": 0.138},
      {"measurement": "Interindividual variability ω^2 KA bootstrap estimate", "setting": "non-parametric bootstrap", "result": 0.276},
      {"measurement": "Interindividual variability ω^2 V bootstrap estimate", "setting": "non-parametric bootstrap", "result": 0.121},
      {"measurement": "KA bootstrap estimate", "setting": "non-parametric bootstrap", "result": 0.504, "unit": "L h^–1"},
      {"measurement": "Kout bootstrap estimate", "setting": "non-parametric bootstrap", "result": 1.35, "unit": "day⁻¹"},
      {"measurement": "V/F bootstrap estimate", "setting": "non-parametric bootstrap", "result": "5,199 L"},
      {"measurement": "ALKPOT = 5 on V/F", "setting": "others (ROS1+ patients or unknown), final model estimate", "result": 0.917},
      {"measurement": "ALKPOT = 2,3,4 on V/F", "setting": "patients with previous ALK inhibitor treatment, final model estimate", "result": 0.734},
      {"measurement": "Cmin,ss", "setting": "quartile 1, estimated using the most prevalent dose", "result": "18–60.7 ng mL^–1"},
      {"measurement": "Cmin,ss", "setting": "quartile 2, estimated using the most prevalent dose", "result": "60.7–79 ng mL^–1"},
      {"measurement": "Cmin,ss", "setting": "quartile 3, estimated using the most prevalent dose", "result": "79–108 ng mL^–1"},
      {"measurement": "Cmin,ss", "setting": "quartile 4, estimated using the most prevalent dose", "result": "108–182 ng mL^–1"},
      {"measurement": "half-life", "setting": "steady state after multiple administrations, typical subjects", "result": "approximately 56.4 h"},
      {"measurement": "Kout", "setting": "time-varying inhibition rate constant", "result": "1.35 (±0.421) day^−1"},
      {"measurement": "Kout typical value", "setting": "time-varying inhibition rate constant, Table 2", "result": 1.35, "unit": "day⁻¹"}
    ]}
  ]
}
